This is an account of results in patent publication US20230331727A1, “METHOD FOR THE PRODUCTION OF LUMATEPERONE AND ITS SALTS” (EGIS GYOGYSZERGYAR ZRT., priority 2017, published 2023).

Series [1] can be described thus: DSC measurement of the amorphous tosylate. In kind it is physicochemical. The note with it: 30° C. - 190° C., 10° C./min, open Al crucible. As to the method:
According to DSC measurements the amorphous form formed with p-toluenesulfonic acid according to the invention only transforms into the crystalline form A at a temperature of around 120° C. This supports that the amorphous form is suitable for the production of pharmaceutical preparations. In other words the advantage of the invention is that the amorphous salt according to the invention is morphologically uniform and stable. Therefore, it is not expected to transform into another form in the pharmaceutical preparation, and the quality of the preparations, primarily its dissolution characteristics are not expected to change. The morphological uniformity is supported by the x-ray powder diffractogram of the novel salt, it confirms its uniform crystal structure and enables the identification of the form even in a pharmaceutical preparation, thereby making it possible to monitor the quality at a later time, and differentiate it from other crystalline polymorphous forms. [table]
(In general: Differential scanning calorimetry records heat flow against a reference as temperature is scanned.)

Series [2] is described as follows: Storage stability of the amorphous salt by x-ray powder diffraction. The note with it: storage at room temperature in a sealed vessel; XRD curves after production and after storage essentially the same (FIG. 5). In kind it is physicochemical. The source says: The reason for this is that the general experience with amorphous active substances is that they are less chemically stable, also while amorphous substances are left to stand, optionally, during storage, or in the pharmaceutical preparation itself they partially or completely transform into a crystalline form or into a mixture of several crystalline forms forming a morphologically inhomogeneous (non-uniform) active substance. Furthermore the solubility of the unstable amorphous compound usually differs from the solubility of the crystalline active substance, a morphological change during storage may lead to a change in the effect of the preparation. However, contrary to the general expectations it was surprising to experience that the formula (III) amorphous lumateperone salt according to the invention, in which salt the molar ratio of the formula (I) lumateperone and p-toluenesulfonic acid is 1:1, remains stable for 3 months (see FIG. 5) without transforming into the very stable polymorph form A or other form. […] It can be seen that the two curves are essentially the same, no peaks characteristic of crystalline forms are apparent even after storage. […] [table] [table]

Take `CN1CCN2c3c(cccc31)[C@@H]1CN(CCCC(=O)c3ccc(F)cc3)CC[C@@H]12.Cc1ccc(S(=O)(=O)O)cc1`: the “temperature at which the amorphous form transforms into the crystalline form A” value in series [1] is “around 120 °C”. In addition, in series [2], the “remains stable without transforming into the very stable polymorph form A or other form” value is listed as 3 months.
